According to patent US7220864B2, “Dihydronaphthalene derivative compounds and agent comprising the derivative as active ingredient” (Ono Pharmaceutical Co., Ltd., priority 2000, dated 2007):

Key:
human PPAR γ = molecular target: T1, human PPAR γ (Homo sapiens, UniProt P37231); experiment: Luciferase assay using human PPAR γ (PPAR γ agonistic activity); format: cell-based; conditions: compound 10 μM; CV-1 cells with Gal4-human PPAR γ LBD chimera and luciferase reporter; luciferase activity of troglitazone (10 μM) defined as 1.0
T1 construct: expressed in transfected cells; host or cells: CV-1 cells
T1 sequence (P37231 204-505): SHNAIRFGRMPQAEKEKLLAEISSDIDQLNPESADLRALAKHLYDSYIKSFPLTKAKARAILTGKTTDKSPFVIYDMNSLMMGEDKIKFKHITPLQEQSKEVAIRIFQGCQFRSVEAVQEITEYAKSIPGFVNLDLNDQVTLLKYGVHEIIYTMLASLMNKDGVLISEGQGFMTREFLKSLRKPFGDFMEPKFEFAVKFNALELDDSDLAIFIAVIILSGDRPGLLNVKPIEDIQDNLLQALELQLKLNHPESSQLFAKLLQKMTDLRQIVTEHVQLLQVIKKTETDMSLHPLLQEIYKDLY

human PPAR α = molecular target: T2, human PPAR α (Homo sapiens, UniProt Q07869); experiment: Luciferase assay using human PPAR α (PPAR α agonistic activity); format: cell-based; conditions: compound 10 μM; CV-1 cells with Gal4-human PPAR α LBD chimera and luciferase reporter; luciferase activity of carbacyclin (10 μM) defined as 1.0
T2 construct: expressed in transfected cells; host or cells: CV-1 cells
T2 sequence (Q07869 167-468): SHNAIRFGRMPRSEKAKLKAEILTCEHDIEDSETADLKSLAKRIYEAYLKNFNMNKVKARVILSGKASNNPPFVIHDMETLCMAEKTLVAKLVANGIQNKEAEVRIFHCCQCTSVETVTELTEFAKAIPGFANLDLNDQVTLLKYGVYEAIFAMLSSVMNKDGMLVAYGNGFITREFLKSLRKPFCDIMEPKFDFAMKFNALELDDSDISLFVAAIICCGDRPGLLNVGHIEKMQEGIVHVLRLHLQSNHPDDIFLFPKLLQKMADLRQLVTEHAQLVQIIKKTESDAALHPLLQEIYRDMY

O=C(O)CCCCC1=CCCc2c(OCc3ccc4ccccc4n3)cccc21 [comprative compound]
Relative Activity to a positive control compound (troglitazone = 1) (human PPAR γ): 0.004 | Relative Activity to a positive control compound (carbacyclin = 1) (human PPAR α): 0.01
